According to patent publication US5663295A, “Opioid peptides” (Biomeasure Inc., priority 1994, dated 1997):

Columns and labels:
[1] = test system: Human NSLC A549; assay: Subcutaneous tumor assay, human non-small cell lung cancer A549 xenografts; assay type: in vivo, athymic nude mice
Protocol: Table 5 compares the antitumor activity of an opioid BIM-38009 versus methadone. A subcutaneous tumor assay was used in which xenografts of the human non-small cell lung cancer were implanted s.c. in athymic nude mice. Test compounds were administered s.c. or i.p., twice daily, from day 4 post tumor implantation to day 35. The results are reported as means±s.e.m. on 8 animals per group. For structure of BIM-38009, see above.

[2] = molecular target: κ receptor; assay: In vitro receptor binding, κ receptor, radioligand U69,593; set-up: species or system guinea-pig or rat; settings: forebrain membranes, 25° C., 60 min
Protocol: (§1) The following procedure was used to determine the ability of various opioid peptides to inhibit binding at opioid receptors. Crude membranes were prepared by homogenization of guinea-pig or rat forebrain samples in 20 ml of ice-cold 50 mM Tris-HCl with a Brinkman Polytron (setting 6, 15 sec.). Buffer was added to obtain a final volume of 40 ml, and the homogenate centrifuged in a Sorval SS-34 rotor at 39,000 g for 10 min. at 0°-4° C. The resulting supernatant was decanted and discarded. The pellet was rehomogenized in ice-cold buffer, pre-incubated at 37° C. for 45 min., diluted, and centrifuged as before. The final pellet was resuspended in 50 mM Tris HCl and held on ice for the receptor binding assay.
(§2) Aliquots of the washed membrane preparation (described above) were incubated in 50 mM Tris HCl at a total volume of 2.0 ml at 25° C. with an opioid receptor ligand (see below) and various concentrations of the unlabeled test compounds. Mu and kappa receptor assays were incubated for 60 minutes. […] At the end of the incubation periods, the assays were terminated by rapid filtration though Whatman GF/B glass fiber filters, and the bound radioactivity trapped on the filters counted by liquid scintillation spectrometry. For each of the three receptor subtypes, specific binding was calculated as the total radioligand bound minus that bound in the presence of 1000 nM levallorphan. […]

[3] = molecular target: δ receptor; assay: In vitro receptor binding, δ receptor, radioligand DPPE; set-up: species or system guinea-pig or rat; settings: forebrain membranes, 25° C., 40 min
Protocol: as §1, §2

[4] = molecular target: μ receptor; assay: In vitro receptor binding, μ receptor, radioligand DAGO; set-up: species or system guinea-pig or rat; settings: forebrain membranes, 25° C., 60 min
Protocol: as §1, §2

Structure (SMILES): CCC(=O)C(CC(C)N(C)C)(c1ccccc1)c1ccccc1 (centres unmarked) [Methadone]
- Tumor Weight (mg) (Day 34) ([1]; A549 xenograft s.c., treatment days 4-35, mean ± s.e.m., 8 animals per group): 337 ± 57 mg
- & T/C ([1]; A549 xenograft, tumor weight Day 34, treated versus control): 110

Structure (SMILES): C[C@@H](NC(=O)[C@@H](N)Cc1ccc(O)cc1)C(=O)NCC(=O)N[C@@H](CCc1ccccc1)C(N)=O [BIM-38046, tyrosyl-D-alanyl-glycyl-homophenylalanine amide]
- Ki [2]: 849 nM
- Ki [3]: 72.7 nM
- Ki [4]: 2.92 ± 1.12 nM
